Test results reported in patent US11040958B2, “Triazole antimicrobial derivative, pharmaceutical composition and use thereof” (priority 2017, dated 2021).

Legend:
[1] = In vitro metabolic stability in human plasma; format: in vitro ADME; conditions: human, plasma; 37°C, compound 10 μM; read-out: Human plasma T1/2
[2] = In vitro metabolic stability in human intestinal S9; format: in vitro ADME; conditions: human, intestinal S9; 37°C, S9 1 mg/mL, compound 10 μM, NADPH regeneration system; read-out: Human intestinal S9 T1/2
[3] = In vitro metabolic stability in rat plasma; format: in vitro ADME; conditions: rat, plasma; 37°C, compound 10 μM; read-out: Rat plasma T1/2
[4] = In vitro metabolic stability in rat intestinal S9; format: in vitro ADME; conditions: rat, intestinal S9, pH 7.4; 37°C, S9 1 mg/mL, compound 10 μM, NADPH regeneration system; read-out: Rat intestinal S9 T1/2
[5] = Solid stability test (25°C, RH 60%, 30 days); format: physicochemical; conditions: 25°C±2°C, relative humidity 60%±2%
[6] = Pharmacokinetics after single intravenous administration in rats (plasma voriconazole); conditions: both, SD, rat, in vivo, iv, 2.5 mg/kg
In short: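 SD rats (180–220 g, 3 male/3 female per group) given single tail-vein dose of 2.5 mg/kg (as voriconazole). Plasma voriconazole measured in blood sampled at multiple time points post-dose.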

[7] = test system: Candida albicans ATCC10231; assay: Systemic fungal infection in mice, intravenous administration, survival; format: in vivo; conditions: ICR mice, tail vein, 5 mg/kg (calculated as voriconazole) once daily for 5 days
In short: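 Male ICR mice (18-22 g) infected via tail vein with C. albicans ATCC10231 at 5*10^6 cells/ml, 0.1 ml/10 g; groups of 10. From 2 h post-infection, 5 mg/kg (as voriconazole) given i.v. once daily for 5 days, saline vehicle (voriconazole in sulfobutyl ether-β-cyclodextrin); survival time recorded over 7 days.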

CC(OC(=O)SCCO)[n+]1cnn(C[C@](O)(c2ccc(F)cc2F)[C@@H](C)c2ncncc2F)c1 (stereo partly shown) [Compound 16037]
half-life at 10 µM [1]: 7.75 ± 0.56 min
half-life at 10 µM [2]: 10.8 ± 1.97 min
half-life at 10 µM [3]: 7.65 ± 0.78 min
half-life at 10 µM [4]: 16 ± 6.88 min
Content increase of total impurity (25° C., placed for 30 days) [5]: 2.15%
AUClast [6]: 9120 ± 3254 ng·h/mL
T1/2 [6]: 148 ± 45 min
survival rate of mice, day 1 ([7]; day 1): 100%
survival rate of mice, day 2 ([7]; day 2): 100%
survival rate of mice, day 3 ([7]; day 3): 90%
survival rate of mice, day 4 ([7]; day 4): 90%
survival rate of mice, day 5 ([7]; day 5): 90%
survival rate of mice, day 6 ([7]; day 6): 80%
